Measured values from article PMC10314921, “Eltrombopag directly activates BAK and induces apoptosis” (Cell Death & Disease, 2023).

Target: T1, BAK (Homo sapiens, UniProt Q16611)
T1 construct: gene BAK1; BAKΔTM (lacking its transmembrane domain) for MST; BAK 15–186 for NMR
T1 sequence (Q16611 15-186): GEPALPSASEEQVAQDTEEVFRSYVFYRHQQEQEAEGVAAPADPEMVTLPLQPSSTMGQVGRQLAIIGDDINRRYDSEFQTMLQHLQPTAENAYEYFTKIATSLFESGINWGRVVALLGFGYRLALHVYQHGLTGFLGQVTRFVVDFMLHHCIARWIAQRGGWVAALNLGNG
Test: microscale thermophoresis; 1H, […]-HSQC NMR titration; BAK oligomerization and liposome release as support
Assay type: binding

CC1=NN(c2ccc(C)c(C)c2)C(=O)/C1=N\Nc1cccc(-c2cccc(C(=O)O)c2)c1O [Eltrombopag]
Kd: 1200 ± 700 nM
